Square brackets hold non-standard residues; d marks the D form. Peptide text beside a SMILES is read from it. Nle = CCCC[C@H](N)C(=O)O
What was measured:
Hsp70 = Hsp70 induction in HepG2 cells ([3H]-leucine labeling, denaturing immunoprecipitation); assay type: cell-based, human; conditions: for Hsp70 levels after removal of ALLN: 4-hour preincubation
Protocol: HepG2 cells were grown up to 95% confluence and then preincubated for 4 hours in a 37° C. incubator with serum-free minimum essential medium (MEM), followed by radiolabeling with 3H-leucine (150 μCi/ml) dissolved in serum-free, leucine-free medium. Preincubation and labeling medium each contained 1.5% bovine serum albumin (BSA) plus different concentrations of ALLN as indicated. After labeling, cells were collected and lysed, and Hsp70 was immunoprecipitated under denaturing conditions as described under Experimental Details. Cell lysates containing an equal amount of TCA-insoluble radioactivity were used for immunoprecipitation. (A): The immunoprecipitates were analyzed by sodium dodecyl sulfate-polyacryamide gel electrophoresis (SDS-PAGE) and fluorography. Numbers on the left-hand side denote molecular markers. (B): The Hsp70 radioactivity was quantitated by scintillation counting and plotted. All the values were presented as means±SD from three individual culture dishes.
FIGS. 3A-3B: Effects of the other protease inhibitors on Hsp70 biosynthesis in HepG2 cells. HepG2 cells were preincubated in serum-free MEM containing either 1.5% BSA alone (Control), or BSA plus 40 μg/ml of ALLN, 40 μg/ml of ALLM, 50 μg/ml of leupeptin, 50 μg/ml of pepstatin A, 25 μg/ml of E-64d, 1 mM of phenylmethylsulfonyl fluoride (PMSF), 100 KIU/ml of apotinin, 1 mM of Benzamidine (Benz), 200 μM of calpain inhibitor peptide (CIP). Radiolabeling (in the presence of protease inhibitors), lysis and immunoprecipitation were performed as described in FIG. 1. The Hsp70 specific radioactivity (A) and the amount of total incorporated radioactivity (TCA-cpm) (B) were compared with each other. All the values were presented as the mean±SD from three individual culture dishes.
FIGS. 9A-9B: Effects of proteasome inhibitors on Hsp70 induction. HepG2 cells were preincubated with the proteasome inhibitors MG132 at a final concentration of either 10 μM or 30 μM (A), or lactacystin at 10 μM (B) for 4 hours under conditions described in FIG. 3. These cells were then subjected to radiolabeling (30 min), cell lysis, and immunoprecipitation with anti-Hsp70 antibody. The experiments with MG132 (A) were repeated twice; the effects of lactacystin (B) were studied in triplicate culture dishes.
ALLN, leupeptin, mouse anti-human Hsp72/73 monoclonal antibody, a secondary antibody conjugated with horseradish peroxidase (HRP) (goat anti-rabbit immunoglubin G [IgG]), and rabbit anti-rat IgG antibody were from Boehringer Mannheim Co. Anti-Human Hsp25 and anti-human Hsp60 monoclonal antibodies, ALLM, Calpain inhibitor peptide (CIP), dimethyl sulfoxide (DMSO) and dithiothreitol (DTT) were from Sigma. Human Hsp70 oligonucleotide probe was from Oncogene Science. This oligonucleotide was ^32P labeled at the 5′-end by T4 Kinase, which was from Biolabs. ^32P was from ICN Pharmaceutical Inc. L-[4,5-^3H] leucine was from Amersham Co. Anti-human Bip (immunoglobulin heavy chain binding protein, also called Grp78), anti-human Hsp27, anti-human Hsp60, and anti-human Hsp90 monoclonal antibodies were from Stress Genes. Anti-human Hsp86 and Hsp104 antibodies were from Affinity Bioreagent Inc. Nitrocellular transfer and immobilization membranes were from Schleicher & Schuell, Keene, N.H. RNA extraction kits were from Biotect, Tex. The polyclonal antibody against the human HSF1 protein was a generous gift from Dr. Carl Wu of the National Institute of Health (Rabindran, et al., 1993). Ethylene glycol bis(succunimidylsuccinate) (EGS) was from Pierce. Cbz-leucyl-leucyl-leucinal (MG132) was a gift of Dr. H. Ploegh at the Massachusetts Institute of Technology. All the other tissue culture supplies and chemicals were obtained from supplies as previously described (Dixon, et al., 1991). The HepG2 cell culture conditions were maintained as previously described (Dixon, et al., 1991).

[1] = system: human microvascular endothelial cell line; test: TCA-cpm measurement in human microvascular endothelial cell line; assay type: cell-based; conditions: 4 hours ALLN 40 μg/ml
proteasomes = conditions: Rock, et al., 1994; cited from earlier work

SMILES: CCCC[C@@H](C=O)NC(=O)[C@H](CC(C)C)NC(=O)[C@H](CC(C)C)NC(C)=O [ALLN, N-acetyl-leucyl-leucyl-norleucinal] (Ac-Leu-Leu-[Nle]-aldehyde)
- Hsp70 levels after removal of ALLN (Hsp70; HepG2, end of a 2-hour wash): 25 fold
- Hsp70 levels after removal of ALLN (Hsp70; HepG2, end of a 6-hour wash): 8 fold
- Hsp70 levels after removal of ALLN (Hsp70; HepG2, end of an 8-hour wash): 4 fold
- increment of newly synthesized Hsp70 levels compared with untreated cells (Hsp70; HepG2, 30 min labeling, ALLN 40 μg/ml, data from several experiments): ~30 fold
- response of cellular Hsp70 levels to ALLN dose (Hsp70; HepG2, 4 hours, different doses (FIG. 1)): dose-dependent response
- induction of Hsp70 by protease inhibitors (FIG. 3A) (Hsp70; HepG2, 4 h pre-treatment, ALLN 40, ALLM 40, leupeptin 50, pepstatin A 50, E-64d 25 μg/ml, PMSF 1 mM, aprotinin 100 KIU/ml): significantly induce
- increase in rate of incorporation of [3H]-leucine into Hsp70 (Hsp70; HepG2, 4 h preincubation with ALLN 40 μg/ml, labeling 10-60 min, every time point): about 25 fold
- Hsp70 levels induced (Hsp70; HepG2, low concentration of ALLN 10 μg/ml, 4 h pre-treatment): more than 9 fold
- induction of Hsp70 levels above baseline (Hsp70; HepG2 cells and human endothelial cells): up to 30 fold
- TCA-cpm measurement [1]: no change
- inhibition of proteasomes (proteasomes): potent inhibitors
